Assay results reported in US20240124483A1, “Methods for the Treatment of Fibrotic Disease” (SHY Therapeutics, LLC, priority 2021, published 2024).
Where two headings read alike, the source gives them in different places.

Assays:
JNK = JNK Activation Assay in Panc-1 (western blot); assay type: cell-based, Human; design: key: Y = yes; N = No; settings: at 10 μM
Method in brief: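 Cells were serum-starved overnight in 0.5% FBS, then given compound (10 μM single dose or serial dilutions, 0.3% DMSO) for 3 h at 37 °C. TGF-b1 at 10 ng/ml followed, 1 h for Panc-1 and 20 min for C2C12. Phospho-JNK (Thr183/Tyr185) was read by western blot of lysates.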

KRas wild type = KRas wild type (Homo sapiens (Human), UniProt P01116); assay: Ras GTP Binding Domain Inhibition Assay, KRas wild type
Chain of KRas wild type (P01116 other isoform, or with tags, fused parts or gaps): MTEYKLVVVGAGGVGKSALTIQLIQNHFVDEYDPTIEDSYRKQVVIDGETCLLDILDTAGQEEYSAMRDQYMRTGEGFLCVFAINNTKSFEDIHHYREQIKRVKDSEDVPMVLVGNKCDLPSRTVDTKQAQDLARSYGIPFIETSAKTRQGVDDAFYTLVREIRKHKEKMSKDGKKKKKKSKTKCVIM
Method in brief: (§1)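 His-tagged KRas proteins coated on nickel plates overnight at 4° C in Tris buffer (pH 7.4 or 7.0, MgCl2, DTT); compounds at 20 μM final (or serial dilutions for IC50) for 3 h at room temperature, ±Sos (residues 556-1049) in final hour. Bound Cy3- or Cy5-GTP (100 nM, 45 min) read by fluorescence after washing.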

KRas G12D mutant = KRas G12D mutant (Homo sapiens (Human), UniProt P01116, G12D); assay: Ras GTP Binding Domain Inhibition Assay, KRas G12D mutant; settings: for inhibition at 20 µM: Table 7; for KRas G12D mutant + SOS: % inh. / KRas G12D mutant: % inh.: 20 uM, Table 8
Chain of KRas G12D mutant (P01116 other isoform, or with tags, fused parts or gaps G12D): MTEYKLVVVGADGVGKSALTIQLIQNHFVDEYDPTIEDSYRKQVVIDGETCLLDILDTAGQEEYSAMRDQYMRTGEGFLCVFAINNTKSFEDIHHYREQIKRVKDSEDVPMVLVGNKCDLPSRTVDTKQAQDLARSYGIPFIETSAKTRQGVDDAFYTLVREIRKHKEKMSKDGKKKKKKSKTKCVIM
Method in brief: as §1

KRas G12C mutant = KRas G12C mutant (Homo sapiens (Human), UniProt P01116, G12C); assay: Ras GTP Binding Domain Inhibition Assay, KRas G12C mutant
Chain of KRas G12C mutant (P01116 other isoform, or with tags, fused parts or gaps G12C): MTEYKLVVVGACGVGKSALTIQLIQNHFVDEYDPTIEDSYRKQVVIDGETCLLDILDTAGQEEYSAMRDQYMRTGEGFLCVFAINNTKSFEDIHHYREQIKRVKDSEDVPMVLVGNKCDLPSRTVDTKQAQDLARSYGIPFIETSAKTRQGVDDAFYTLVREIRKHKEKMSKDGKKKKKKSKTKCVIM
Method in brief: as §1

Rho-A = Rho-A (Homo sapiens (Human), UniProt P61586); assay: Ras GTP Binding Domain Inhibition Assay, Rho-A
Chain of Rho-A (P61586 whole entry, species assumed, the tested form may be a part): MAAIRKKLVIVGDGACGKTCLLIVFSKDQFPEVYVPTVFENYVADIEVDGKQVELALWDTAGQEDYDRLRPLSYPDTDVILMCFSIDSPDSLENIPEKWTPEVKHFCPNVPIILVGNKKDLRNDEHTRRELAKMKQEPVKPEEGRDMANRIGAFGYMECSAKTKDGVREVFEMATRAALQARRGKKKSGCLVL
Method in brief: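 His-tagged GTPase immobilized on nickel-coated plates (10-30 μg/mL, overnight, 4° C), then exposed to compound (20 μM or serial dilution for IC50, 1% DMSO) for 3 h at room temperature, with or without His-tagged Sos (residues 556-1049) in the final hour. Bound Cy3-GTP or Cy5-GTP (100 nM, 45 min) was read by fluorescence after washing.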

[1] = + SOS, read-out: KRas wild type + SOS: % inh.
[2] = without SOS, read-out: KRas wild type: % inh.
[3] = + SOS, read-out: KRas G12D mutant + SOS: % inh.
[4] = without SOS, read-out: KRas G12D mutant: % inh.
[5] = + SOS, read-out: KRas G12C mutant + SOS: % inh.
[6] = without SOS, read-out: KRas G12C mutant: % inh.
[7] = without SOS, read-out: Rho-A: % inh.

SMILES	Activation of JNK in PANC-1 (JNK)	inhibition at 20 µM (KRas wild type; [1]) [%]	inhibition at 20 µM (KRas wild type; [2]) [%]	inhibition at 20 µM (KRas G12D mutant; [3]) [%]	KRas G12D mutant + SOS: % inh. (KRas G12D mutant; + SOS)	inhibition at 20 µM (KRas G12D mutant; [4]) [%]	KRas G12D mutant: % inh. (KRas G12D mutant; without SOS)	inhibition at 20 µM (KRas G12C mutant; [5]) [%]	inhibition at 20 µM (KRas G12C mutant; [6]) [%]	inhibition at 20 µM (Rho-A; [7]) [%]	inhibition at 20 µM (Rho-A; + SOS, read-out: Rho-A + SOS: % inh.) [%]
COCC1CN(c2nc(-c3nccn3C)nc3sc(-c4ccn(C(C)C)n4)c(C)c23)CCO1 (racemic) [Compound 15, 4-(6-(1-Isopropyl-1H-pyrazol-3-yl)-5-methyl-2-(1-methyl-1H-imidazol-2-yl)thieno[2,3-d]pyrimidin-4-yl)-2-(methoxymethyl)morpholine]	Y	76 to 100	76 to 100	76 to 100	D (D = 76-100% inhibition)	76 to 100	D (D = 76-100% inhibition)	76 to 100	46 to 75	76 to 100	–
CO[C@H]1CNC[C@@H](Nc2nc(-c3nccn3C)nc3sc(-c4ccn(C(C)C)n4)cc23)C1 [Compound 28, 6-(1-Isopropyl-1H-pyrazol-3-yl)-N-((3S,5R)-5-methoxypiperidin-3-yl)-2-(1-methyl-1H-imidazol-2-yl)thieno[2,3-d]pyrimidin-4-amine]	Y	76 to 100	76 to 100	76 to 100	D (D = 76-100% inhibition)	46 to 75	C (C = 46-75% inhibition)	76 to 100	76 to 100	46 to 75	–
COc1cc(-c2sc3nc(-c4nccn4C)nc(N[C@@H]4CC[C@H](OC)C4)c3c2-c2ccccc2)ccn1 (racemic) [Compound 44, rac-N-((1R,3S)-3-Methoxycyclopentyl)-6-(2-methoxypyridin-4-yl)-2-(1-methyl-1H-imidazol-2-yl)-5-phenylthieno[2,3-d]pyrimidin-4-amine]	Y	76 to 100	46 to 75	46 to 75	C (C = 46-75% inhibition)	76 to 100	D (D = 76-100% inhibition)	76 to 100	26 to 45	0	–
COCCCn1c(-c2nccn2C)nc2sc(-c3ccn(C(C)C)n3)c(-c3ccccc3)c2c1=O [Compound 36, 6-(1-Isopropyl-1H-pyrazol-3-yl)-3-(3-methoxypropyl)-2-(1-methyl-1H-imidazol-2-yl)-5-phenylthieno[2,3-d]pyrimidin-4(3H)-one]	Y	1 to 25	1 to 25	0	0 (0 = 0% inhibition)	0	0 (0 = 0% inhibition)	1 to 25	0	0	–
COc1cccc(-c2sc3nc(-c4nccn4C)nc(N[C@H]4C[C@H](OC)C4)c3c2-c2ccccc2)c1F [Compound 40, 6-(2-Fluoro-3-methoxyphenyl)-N-((1r,3r)-3-methoxycyclobutyl)-2-(1-methyl-1H-imidazol-2-yl)-5-phenylthieno[2,3-d]pyrimidin-4-amine]	Y	76 to 100	46 to 75	76 to 100	D (D = 76-100% inhibition)	46 to 75	C (C = 46-75% inhibition)	76 to 100	46 to 75	26 to 45	–
COCCNc1nc(-c2cn(C)cn2)nc2sc(-c3cccc(OC)c3Cl)c(-c3ccc(OC)cc3)c12 [Compound 8, 6-(2-Chloro-3-methoxyphenyl)-N-(2-methoxyethyl)-5-(4-methoxyphenyl)-2-(1-methyl-1H-imidazol-4-yl)thieno[2,3-d]pyrimidin-4-amine]	Y	76 to 100	46 to 75	26 to 45	B (B = 26-45% inhibition)	26 to 45	B (B = 26-45% inhibition)	76 to 100	26 to 45	46 to 75	46 to 75
Cc1c(-c2ccn(C(C)C)n2)sc2nc(-c3nccn3C)nc(NCC3COCCN3C)c12 (racemic) [Compound 24, rac-6-(1-Isopropyl-1H-pyrazol-3-yl)-5-methyl-2-(1-methyl-1H-imidazol-2-yl)-N-((4-methylmorpholin-3-yl)methyl)thieno[2,3-d]pyrimidin-4-amine]	Y	76 to 100	26 to 45	76 to 100	D (D = 76-100% inhibition)	46 to 75	C (C = 46-75% inhibition)	76 to 100	46 to 75	46 to 75	–
COCCCNc1nc(-c2nccn2C)nc2sc(-c3ccccc3)c(-c3ccccc3)c12 [Compound 3, N-(3-Methoxypropyl)-2-(1-methyl-1H-imidazol-2-yl)-5,6-diphenylthieno[2,3-d]pyrimidin-4-amine]	Y	1 to 25	46 to 75	1 to 25	A (A = 1-25% inhibition)	46 to 75	C (C = 46-75% inhibition)	–	46 to 75	46 to 75	–
Cc1c(-c2ccn(C(C)C)n2)sc2nc(-c3nccn3C)nc(NCCN3CCOCC3)c12 [Compound 22, 6-(1-Isopropyl-1H-pyrazol-3-yl)-5-methyl-2-(1-methyl-1H-imidazol-2-yl)-N-(2-morpholinoethyl)thieno[2,3-d]pyrimidin-4-amine]	Y	76 to 100	76 to 100	76 to 100	D (D = 76-100% inhibition)	76 to 100	D (D = 76-100% inhibition)	76 to 100	76 to 100	76 to 100	–
COc1cccc(Nc2nc(-c3nccn3C)nc3sc(-c4ccn(C(C)C)n4)c(C)c23)c1 [Compound 17, 6-(1-Isopropyl-1H-pyrazol-3-yl)-N-(3-methoxyphenyl)-5-methyl-2-(1-methyl-1H-imidazol-2-yl)thieno[2,3-d]pyrimidin-4-amine]	Y	46 to 75	26 to 45	46 to 75	C (C = 46-75% inhibition)	46 to 75	C (C = 46-75% inhibition)	76 to 100	46 to 75	46 to 75	–
